Test results reported in ChEMBL document CHEMBL1152012, “Synthesis of (+)-biotin derivatives as HIV-1 protease inhibitors” (Bioorg Med Chem Lett, 1996).

Key:
[1] = biological target: Human immunodeficiency virus type 1 protease (Human immunodeficiency virus 1, UniProt Q72874); experiment: Inhibitory activity against HIV protease enzyme.
[2] = tested on: MT2; experiment: Concentration resulting in 90% inhibition of viral RNA production in HIV-1 infected MT-2 cells; type: functional; conditions: Homo sapiens

Structure (SMILES) | Ki [1] [µM] | IC90 [2] [µM]
CC(=O)c1cccc(CN2C(=O)N(Cc3cccc(C(C)=O)c3)C3C2CS[C@H]3CCCCCO)c1 (some centres not stated) | 3.7 | 26
O=C1N(Cc2ccccc2)C2CS[C@@H](CCCCCO)C2N1Cc1ccccc1 (some centres not stated) | 10.3 | 46
COC(=O)CCCC[C@H]1C2C(CS1(=O)=O)N(Cc1cccc(Br)c1)C(=O)N2Cc1cccc(Br)c1 (some centres not stated) | 4.1 | > 80
O=C1N(Cc2cccc(Br)c2)C2CS(=O)(=O)[C@@H](CCCCCO)C2N1Cc1cccc(Br)c1 (some centres not stated) | 6.9 | 80
CC(O)c1cccc(CN2C(=O)N(Cc3cccc(C(C)O)c3)C3C2CS[C@H]3CCCCCO)c1 (some centres not stated) | 1.9 | > 98

Further lines, results first:

Ki [1] [µM] | IC90 [2] [µM] | Structure (SMILES)
0.58 | 44 | COC(=O)CCCC[C@@H]1SCC2C1N(Cc1cccc(Br)c1)C(=O)N2Cc1cccc(Br)c1 (some centres not stated)
0.5 | 7 | O=C1N(Cc2cccc(Br)c2)C2CS[C@@H](CCCCCO)C2N1Cc1cccc(Br)c1 (some centres not stated)
3.4 | 12.5 | CC(=O)c1cccc(COC(=O)CCCC[C@@H]2SCC3C2N(Cc2cccc(C(C)=O)c2)C(=O)N3Cc2cccc(C(C)=O)c2)c1 (some centres not stated)
2.2 | 34 | O=C(O)CCCC[C@@H]1SCC2C1N(Cc1cccc(Br)c1)C(=O)N2Cc1cccc(Br)c1 (some centres not stated)
0.68 | 45 | O=C(CCCC[C@@H]1SCC2C1N(Cc1cccc(Br)c1)C(=O)N2Cc1cccc(Br)c1)OCc1cccc(Br)c1 (some centres not stated)
2.7 | 67 | C/C(=N\O)c1cccc(COC(=O)CCCC[C@@H]2SCC3C2N(Cc2cccc(/C(C)=N/O)c2)C(=O)N3Cc2cccc(/C(C)=N/O)c2)c1 (some centres not stated)
